The experiment concerns axillary sweating. Description: Clinical study of the effect of Propylparaben on axillary sweating (gravimetric sweat measurement). The experiment is classed as in vivo, human.

Each structure is given as a SMILES string.

In the case of `CCCOC(=O)c1ccc(O)cc1` [Propylparaben], under “based on percent of subjects with at least 30% reduction versus Baseline, versus placebo (water)”, the “greater effectiveness in reducing sweat production than placebo (by responder assessment)” value was determined as 245%. Also, under “overall conclusion of the clinical study”, the “conclusion on activity in reducing sweat production” value was “biologically active in reducing sweat production”. Besides, the “reduction in sweat production (average), gravimetric sweat measurement” value (subjects with moderate to severe primary axillary hyperhidrosis, single topical treatment, 0.20 mg per axilla, two weeks after treatment, 5 minute collection) stood at 177 mg. In addition, the “percent of subjects with at least a 30% reduction in sweat production compared to Baseline” value (two weeks after single topical treatment, 0.20 mg per axilla, gravimetric sweat measurement) is given as 70%. Besides, the “greater reduction in sweat production than the control (placebo) group” value (two weeks after single topical treatment, 0.20 mg per axilla, versus placebo (water)) is on record as 337%.

The values above are taken from patent publication US20120321571A1, “PARABEN COMPOSITIONS” (ANTERIOS, INC., priority 2011, published 2012).
